Common to all, as to assay type: cell-based
For one experiment, the system named is Entercoccus faecalis 276. Put plainly: MIC, standard broth micro-dilution assay. Here is the method:
(§1) The formula I compounds have in vitro and in vivo activity against Gram-positive pathogenic bacteria. The MIC's were determined using a standard broth micro-dilution assay.

The test system of experiment [1] is Entercoccus gallinarum 245. The experiment can be described thus: MIC, standard broth micro-dilution assay. The protocol:
as §1

For another experiment, the system named is Pedicoccus acidilacti. Put plainly: MIC, agar dilution on brain-heart infusion agar. As to conditions: Pedioccccus acidilacti (mean of 10).
For the next experiment, the system named is Pediococcus pentosaceus. Put plainly: MIC, agar dilution on brain-heart infusion agar. The note with it: Pediococcus pentosaceus (mean of 2). Background: In agar dilution the substance is mixed into plates at graded concentrations.
Another experiment concerns Leuconostoc lactis. The experiment can be described thus: MIC, agar dilution on brain-heart infusion agar. As to conditions: Leuconostoc lactis (mean of 2).
The test system of experiment [2] is Leuconostoc mesenteroides. The experiment can be described thus: MIC, agar dilution on brain-heart infusion agar. As to conditions: Leuconostoc mesenteroides (mean of 4).
In experiment [3] the test system is Leuconostoc pseudomesenteroides. The experiment can be described thus: MIC, agar dilution on brain-heart infusion agar.
A further experiment has as its system Lactobacillus confusus. Put plainly: MIC, agar dilution on brain-heart infusion agar.
In experiment [4] the test system is Entercoccus faecalis 2041. Put plainly: MIC, standard broth micro-dilution assay. Here is the method:
as §1

Another experiment has as its system Leuconostoc citreum. Put plainly: MIC, agar dilution on brain-heart infusion agar.
Experiment [5] concerns Entercoccus faecium 180-1. Put plainly: MIC, standard broth micro-dilution assay. The protocol:
(§2) The MIC's were determined using a standard broth micro-dilution assay.

For another experiment, the system named is Entercoccus faecium 180. Put plainly: MIC, standard broth micro-dilution assay. Here is the method:
as §2
Background: Broth dilution looks for growth in wells or tubes with falling amounts of substance.

The test system of a further experiment is Escherichia coli EC14. The experiment can be described thus: MIC, standard broth micro-dilution assay. Here is the method:
as §2

The test system of experiment [6] is Haemophilus influenzae RD. Put plainly: MIC, standard broth micro-dilution assay. Here is the method:
as §2

The subject of experiment [7] is Staphylococcus aureus 446. The experiment can be described thus: MIC, standard broth micro-dilution assay. The protocol:
as §2

Experiment [8] has as its system Staphylococcus aureus 447. Put plainly: MIC, standard broth micro-dilution assay. The protocol: as §2
The test system of experiment [9] is Staphylococcus aureus 489. Put plainly: MIC, standard broth micro-dilution assay. Here is the method:
as §2

For experiment [10], the system named is Staphylococcus aureus 491. The experiment can be described thus: MIC, standard broth micro-dilution assay. The protocol: as §2
The subject of experiment [11] is Staphylococcus aureus SA1199A. The experiment can be described thus: MIC, standard broth micro-dilution assay. Here is the method:
as §2

For experiment [12], the system named is Staphylococcus aureus SA1199. Put plainly: MIC, standard broth micro-dilution assay. Here is the method: as §2
For experiment [13], the system named is Staphylococcus aureus X400. The experiment can be described thus: MIC, standard broth micro-dilution assay. The protocol:
as §2

Experiment [14] deals with Staphylococcus aureus X778. Put plainly: MIC, standard broth micro-dilution assay. Here is the method: as §2
In experiment [15] the test system is Staphylococcus epidermidis 270. The experiment can be described thus: MIC, standard broth micro-dilution assay. Here is the method:
as §2

Experiment [16] deals with Staphylococcus haemolyticus 105. The experiment can be described thus: MIC, standard broth micro-dilution assay. The protocol:
as §2

Experiment [17] concerns Staphylococcus haemolyticus 415. Put plainly: MIC, standard broth micro-dilution assay. Here is the method: as §2
Experiment [18] has as its system Streptococcus pneumoniae P1. The experiment can be described thus: MIC, standard broth micro-dilution assay. Here is the method:
as §2

The test system of experiment [19] is Staphylococcus aureus S13E. Here is the method:
as §2

The subject of experiment [20] is Staphylococcus aureus SA1199B. The protocol: as §2

In brackets after ≈: the same amount, converted by molar mass. A value given as a limit tells only on which side of the number the result lay.

`CNC(CC(C)C)C(=O)NC1C(=O)NC(CC(N)=O)C(=O)NC2C(=O)NC3C(=O)NC(C(=O)NC(C(=O)O)c4cc(O)cc(O)c4-c4cc3ccc4O)C(OC3CC(C)(N)C(O)C(C)O3)c3ccc(c(Cl)c3)Oc3cc2cc(c3OC2OC(CO)C(O)C(O)C2OC2CC(C)(NCc3ccc(-c4ccccc4)cc3)C(O)C(C)O2)Oc2ccc(cc2Cl)C1O` (stereo not drawn) [Compound 2, p-phenylbenzyl.cndot.A82846B]: the MIC is 0.5 µg/mL (≈ 0.284 µM) against Entercoccus faecalis 276; no more than 0.06 µg/mL in experiment [1]; 5.9 µg/mL (≈ 3.35 µM) in the experiment on Pedicoccus acidilacti; 11 µg/mL (≈ 6.25 µM) with Pediococcus pentosaceus; 4.0 µg/mL (≈ 2.27 µM) against Leuconostoc lactis; 16 µg/mL (≈ 9.1 µM) in [2]. Moreover, the figures for the MIC (in experiment [3]; in the experiment on Lactobacillus confusus) were 32 µg/mL (≈ 18.2 µM) and 16 µg/mL (≈ 9.1 µM), respectively.
For the molecule `CNC(CC(C)C)C(=O)NC1C(=O)NC(CC(N)=O)C(=O)NC2C(=O)NC3C(=O)NC(C(=O)NC(C(=O)O)c4cc(O)cc(O)c4-c4cc3ccc4O)C(OC3CC(C)(N)C(O)C(C)O3)c3ccc(c(Cl)c3)Oc3cc2cc(c3OC2OC(CO)C(O)C(O)C2OC2CC(C)(NCc3ccc(Oc4ccccc4)cc3)C(O)C(C)O2)Oc2ccc(cc2Cl)C1O` (stereo not drawn) [Compound 4, p-phenoxybenzyl.cndot.A82846B], the MIC in experiment [4] is no more than 0.06 µg/mL; in the experiment with Entercoccus faecalis 276, no more than 0.06 µg/mL; in experiment [1], no more than 0.06 µg/mL; in the experiment with Pedicoccus acidilacti, 7.5 µg/mL (≈ 4.23 µM); against Pediococcus pentosaceus, 16 µg/mL (≈ 9.02 µM); with Leuconostoc lactis, 16 µg/mL (≈ 9.02 µM). Besides, the MIC was determined as 16 µg/mL (≈ 9.02 µM) in experiment [2], 32 µg/mL (≈ 18 µM) in experiment [3] and 32 µg/mL (≈ 18 µM) in the experiment on Lactobacillus confusus.
With `CNC(CC(C)C)C(=O)NC1C(=O)NC(CC(N)=O)C(=O)NC2C(=O)NC3C(=O)NC(C(=O)NC(C(=O)O)c4cc(O)cc(O)c4-c4cc3ccc4O)C(OC3CC(C)(N)C(O)C(C)O3)c3ccc(c(Cl)c3)Oc3cc2cc(c3OC2OC(CO)C(O)C(O)C2OC2CC(C)(NCc3ccc(OCc4ccccc4)cc3)C(O)C(C)O2)Oc2ccc(cc2Cl)C1O` (stereo not drawn) [Compound 5, 4-benzyloxybenzyl], the MIC in experiment [4] was no more than 0.06 µg/mL; in the experiment on Entercoccus faecalis 276 it was no more than 0.06 µg/mL; in experiment [1], no more than 0.06 µg/mL; against Pedicoccus acidilacti, 2.8 µg/mL (≈ 1.57 µM); in the experiment on Pediococcus pentosaceus it was 8.0 µg/mL (≈ 4.47 µM); against Leuconostoc lactis, 8.0 µg/mL (≈ 4.47 µM). The MIC in experiment [2] is 8 µg/mL (≈ 4.47 µM); in experiment [3] it was 16 µg/mL (≈ 8.95 µM); against Leuconostoc citreum it was 64 µg/mL (≈ 35.8 µM); with Lactobacillus confusus, 16 µg/mL (≈ 8.95 µM).
Regarding `CNC(CC(C)C)C(=O)NC1C(=O)NC(CC(N)=O)C(=O)NC2C(=O)NC3C(=O)NC(C(=O)NC(C(=O)O)c4cc(O)cc(O)c4-c4cc3ccc4O)C(OC3CC(C)(N)C(O)C(C)O3)c3ccc(c(Cl)c3)Oc3cc2cc(c3OC2OC(CO)C(O)C(O)C2OC2CC(C)(NCc3ccc(OC(F)(F)F)cc3)C(O)C(C)O2)Oc2ccc(cc2Cl)C1O` (stereo not drawn) [Compound 6, 4-trifluoromethoxybenzyl], the MIC in [4] was no more than 0.06 µg/mL; in [1] it was no more than 0.06 µg/mL; with Pedicoccus acidilacti, 4.3 µg/mL (≈ 2.43 µM); against Pediococcus pentosaceus, 8.0 µg/mL (≈ 4.53 µM); in the experiment on Leuconostoc lactis it was 8.0 µg/mL (≈ 4.53 µM); in experiment [2] it was 9.5 µg/mL (≈ 5.38 µM). For the same molecule, the MIC (in experiment [3]; in the experiment with Lactobacillus confusus) was 16 µg/mL (≈ 9.06 µM) throughout.
As for `CNC(CC(C)C)C(=O)NC1C(=O)NC(CC(N)=O)C(=O)NC2C(=O)NC3C(=O)NC(C(=O)NC(C(=O)O)c4cc(O)cc(O)c4-c4cc3ccc4O)C(OC3CC(C)(N)C(O)C(C)O3)c3ccc(c(Cl)c3)Oc3cc2cc(c3OC2OC(CO)C(O)C(O)C2OC2CC(C)(NCc3ccc4c(c3)Cc3ccccc3-4)C(O)C(C)O2)Oc2ccc(cc2Cl)C1O` (stereo not drawn) [Compound 32, 2-fluorenylmethyl], the MIC in the experiment with Pediococcus pentosaceus turned out to be 16 µg/mL (≈ 9.04 µM); against Leuconostoc lactis, 16 µg/mL (≈ 9.04 µM); in experiment [2] it was 16 µg/mL (≈ 9.04 µM); with Leuconostoc citreum, 64 µg/mL (≈ 36.1 µM); with Lactobacillus confusus it was 16 µg/mL (≈ 9.04 µM).
In the case of `CNC(CC(C)C)C(=O)NC1C(=O)NC(CC(N)=O)C(=O)NC2C(=O)NC3C(=O)NC(C(=O)NC(C(=O)O)c4cc(O)cc(O)c4-c4cc3ccc4O)C(OC3CC(C)(N)C(O)C(C)O3)c3ccc(c(Cl)c3)Oc3cc2cc(c3OC2OC(CO)C(O)C(O)C2OC2CC(C)(NCc3ccc4c(c3)OCO4)C(O)C(C)O2)Oc2ccc(cc2Cl)C1O` (stereo not drawn) [Compound 48, 3,4-methylenedioxylbenzyl], the MIC in [5] is no more than 0.06 µg/mL; against Entercoccus faecium 180, 1 µg/mL (≈ 0.579 µM); in the experiment on Escherichia coli EC14, greater than 64 µg/mL; in [6], greater than 64 µg/mL; in [7], 0.125 µg/mL (≈ 0.0724 µM); in experiment [8], 2 µg/mL (≈ 1.16 µM). The MIC in [9] is no more than 0.06 µg/mL; in experiment [10], 0.25 µg/mL (≈ 0.145 µM); in [11], no more than 0.06 µg/mL; in experiment [12] it was 0.25 µg/mL (≈ 0.145 µM); in [13], no more than 0.06 µg/mL; in [14] it was no more than 0.06 µg/mL. Moreover, the MIC was 1 µg/mL (≈ 0.579 µM) in experiment [15]; 2 µg/mL (≈ 1.16 µM) in experiment [16]; 8 µg/mL (≈ 4.63 µM) in [17]; no more than 0.06 µg/mL in experiment [18]; no more than 0.06 µg/mL in [19]; 1 µg/mL (≈ 0.579 µM) in [20]. Also, the MIC is no more than 0.06 µg/mL in [4], no more than 0.06 µg/mL in the experiment on Entercoccus faecalis 276 and 1 µg/mL (≈ 0.579 µM) in experiment [1].
Consider `CNC(CC(C)C)C(=O)NC1C(=O)NC(CC(N)=O)C(=O)NC2C(=O)NC3C(=O)NC(C(=O)NC(C(=O)O)c4cc(O)cc(O)c4-c4cc3ccc4O)C(OC3CC(C)(N)C(O)C(C)O3)c3ccc(c(Cl)c3)Oc3cc2cc(c3OC2OC(CO)C(O)C(O)C2OC2CC(C)(NCc3cccc(Oc4ccccc4)c3)C(O)C(C)O2)Oc2ccc(cc2Cl)C1O` (stereo not drawn) [Compound 49, 3-phenoxybenzyl], for which the MIC in experiment [5] is no more than 0.06 µg/mL; against Entercoccus faecium 180, 0.25 µg/mL (≈ 0.141 µM); with Escherichia coli EC14, greater than 64 µg/mL; in [6], greater than 64 µg/mL; in [7], 0.5 µg/mL (≈ 0.282 µM); in [8], 1 µg/mL (≈ 0.563 µM). The MIC in experiment [9] was no more than 0.06 µg/mL; in [10] it was 0.125 µg/mL (≈ 0.0704 µM); in [11] it was no more than 0.06 µg/mL; in experiment [12], 2 µg/mL (≈ 1.13 µM); in experiment [13], 0.125 µg/mL (≈ 0.0704 µM); in experiment [14], no more than 0.06 µg/mL. Moreover, the MIC in experiment [15] is 1 µg/mL (≈ 0.563 µM); in experiment [16], 1 µg/mL (≈ 0.563 µM); in [17], 1 µg/mL (≈ 0.563 µM); in experiment [18], no more than 0.06 µg/mL; in experiment [19] it was no more than 0.06 µg/mL; in experiment [20] it was 1 µg/mL (≈ 0.563 µM). In addition, the MIC in [4] was no more than 0.06 µg/mL; against Entercoccus faecalis 276 it was 0.25 µg/mL (≈ 0.141 µM); in experiment [1] it was 1 µg/mL (≈ 0.563 µM); with Pedicoccus acidilacti, 55 µg/mL (≈ 31 µM); against Pediococcus pentosaceus it was 64 µg/mL (≈ 36.1 µM); against Leuconostoc lactis, 64 µg/mL (≈ 36.1 µM). Further, the MIC (in [2]; against Lactobacillus confusus) was 64 µg/mL (≈ 36.1 µM) in each case.
For `CNC(CC(C)C)C(=O)NC1C(=O)NC(CC(N)=O)C(=O)NC2C(=O)NC3C(=O)NC(C(=O)NC(C(=O)O)c4cc(O)cc(O)c4-c4cc3ccc4O)C(OC3CC(C)(N)C(O)C(C)O3)c3ccc(c(Cl)c3)Oc3cc2cc(c3OC2OC(CO)C(O)C(O)C2OC2CC(C)(NCc3ccc(Sc4ccccc4)cc3)C(O)C(C)O2)Oc2ccc(cc2Cl)C1O` (stereo not drawn) [Compound 108, 4-thiophenylbenzyl], the MIC in [4] was no more than 0.06 µg/mL; in the experiment with Entercoccus faecalis 276 it was 0.5 µg/mL (≈ 0.279 µM); in experiment [1], no more than 0.06 µg/mL; against Pedicoccus acidilacti it was 12 µg/mL (≈ 6.7 µM); against Pediococcus pentosaceus, 23 µg/mL (≈ 12.8 µM); against Leuconostoc lactis, 8.0 µg/mL (≈ 4.47 µM). In addition, the MIC came to 10 µg/mL (≈ 5.58 µM) in experiment [2], 32 µg/mL (≈ 17.9 µM) in experiment [3] and 16 µg/mL (≈ 8.93 µM) in the experiment on Lactobacillus confusus.
